# Test results from patent publication US4771046A, “Carbapenem derivatives” (Sankyo Company, Limited, priority 1985, dated 1988).
# What was measured:
# [1] = tested on: Enterobacter cloacae 963; experiment: Minimum inhibitory concentration, agar plate dilution method; type: cell-based
# Excerpt: (§1) Table 2 sets out the activities of six of the compounds of the present invention against various bacteria, in terms of their minimal inhibitory concentrations (μg/ml). These compounds are identified by the same numbers as used in Table 1 above.
# (§2) Minimum Inhibitory Concentrations (μg/ml)
# (§3) In the compounds used in Table 2, compounds 1, 15 and 27 have the (5R,6S) configuration, and compounds 2, 16 and 28 have the (1R,5S,6S) configuration. In all six of the compounds, the configuration of the hydroxy group in the side-chain at position 6 is (1R).
# [2] = tested on: Escherichia coli 609; experiment: as above; type: cell-based
# Excerpt: as §1, §2, §3
# [3] = tested on: Escherichia coli NIHJ; experiment: as above; type: cell-based
# Excerpt: as §1, §2, §3
# [4] = tested on: Klebsiella pneumoniae 806; experiment: as above; type: cell-based
# Excerpt: as §1, §2, §3
# [5] = tested on: Klebsiella pneumoniae 846; experiment: as above; type: cell-based
# Excerpt: as §1, §2, §3
# [6] = tested on: Proteus vulgaris 1420; experiment: as above; type: cell-based
# Excerpt: as §1, §2, §3
# [7] = tested on: Serratia marcescens 1184; experiment: as above; type: cell-based
# Excerpt: as §1, §2, §3
# [8] = tested on: Staphylococcus aureus 209P; experiment: as above; type: cell-based
# Excerpt: as §1, §2, §3
# [9] = tested on: Staphylococcus aureus 56; experiment: as above; type: cell-based
# Excerpt: as §1, §2, §3
# [10] = tested on: mice; experiment: Toxicity in mice (survival); type: in vivo
# [11] = tested on: Salmonella enteritidis; experiment: Minimum inhibitory concentration, agar plate dilution method; type: cell-based; conditions: Salmonella enterica
# Excerpt: as §1, §2, §3
# [12] = tested on: dehydropeptidase I; conditions: in vivo in mammals; cited from earlier work
# [13] = cited from earlier work
SMILES,MIC [1] [µg/mL],MIC [2] [µg/mL],MIC [3] [µg/mL],MIC [4] [µg/mL],MIC [5] [µg/mL],MIC [6] [µg/mL],MIC [7] [µg/mL],MIC [8] [µg/mL],MIC [9] [µg/mL],dosage at which mice survive ([10]; mice),MIC [11] [µg/mL],"dosage at which mice survive ([10]; mouse, in vivo)",inactivation by dehydropeptidase I [12],chemical stability in the human body [13]
"C[C@@H](O)[C@H]1C(=O)N2C(C(=O)O)=C(SCC(=N)N3CC[C@@H](OC(N)=O)C3)C[C@H]12 [Compound No. 15, (5R,6S)-2-{2-[(3R)-3-Carbamoyloxypyrrolidin-1-yl]-2-iminoethylthio}-6-[(1R)-1-hydroxyethyl]-1-carbapen-2-em-3-carboxylic acid]",1.5,0.1,0.1,0.1,0.05,1.5,0.1,≤ 0.01,0.02,"above 2,000 mg/kg",,,,
"C[C@@H](O)[C@H]1C(=O)N2C(C(=O)O)=C(SCC(=N)N3CCN(C)C(=O)C3)C[C@H]12 [Compound No. 3, (5R,6S)-2-[2-(4-Methyl-3-oxopiperazin-1-yl)-2-iminoethylthio]-6-[(1R)-1-hydroxethyl]-1-carbapen-2-em-3-carboxylic acid]",,,,,,,,,,"above 2,000 mg/kg",,,,
"C[C@@H](O)[C@H]1C(=O)N2C(C(=O)O)=C(SCC(=N)N3CC[C@@H](OC(N)=O)C3)[C@H](C)[C@H]12 [Compound No. 16, (1R,5S,6S)-2-{2-[(3R)-3-Carbamoyloxypyrrolidin-1-yl]-2-iminoethylthio}-6-[(1R)-1-hydroxyethyl]-1-methyl-1-carbapen-2-em-3-carboxylic acid]",0.8,0.1,0.05,0.05,0.1,3.1,0.1,≤ 0.01,0.05,,,,,
"C[C@@H](O)[C@H]1C(=O)N2C(C(=O)O)=C(SCC(=N)N3CCNC(=O)C3)[C@H](C)[C@H]12 [Compound No. 2, (1R,5S,6S)-2-[2-(3-Oxopiperazin-1-yl)-2-iminoethylthio]-6-[(1R)-1-hydroxyethyl]-1-methyl-1-carbapen-2-em-3-carboxylic acid]",0.4,0.05,0.02,0.02,0.05,0.4,0.1,≤ 0.01,0.05,,0.05,,,
"C[C@@H](O)[C@H]1C(=O)N2C(C(=O)O)=C(SCC(=N)N3CCNC(=O)C3)C[C@H]12 [Compound No. 1, (5R,6S)-2-[2-(3-Oxopiperazin-1-yl)-2-iminoethylthio]-6-[(1R)-1-hydroxyethyl]-1-carbapen-2-em-3-carboxylic acid]",0.8,0.4,0.1,0.2,0.1,1.5,0.2,≤ 0.01,0.05,,0.1,,,
"C[C@@H](O)[C@H]1C(=O)N2C(C(=O)O)=C(SCC(=N)N3CCC(=NO)CC3)C[C@H]12 [Compound No. 27, (5R,6S)-2-[2-(4-Hydroxyiminopiperidin-1-yl)-2-iminoethylthio]-6-[(1R)-1-hydroxyethyl]-1-carbapen-2-em-3-carboxylic acid]",0.8,0.1,0.1,0.1,0.05,0.8,0.1,≤ 0.01,0.02,,,"above 2,000 mg/kg",,
"C[C@@H](O)[C@H]1C(=O)N2C(C(=O)O)=C(SCCN)C[C@H]12 [thienamycin, 2-(2-aminoethylthio)-6-(1-hydroxyethyl)carbapen-2-em-3-carboxylic acid]",,,,,,,,,,,,,inactivated in vivo in mammals by dehydropeptidase I,poor
"C[C@@H](O)[C@H]1C(=O)N2C(C(=O)O)=C(SCC(=N)N3CCC(=NO)CC3)[C@H](C)[C@H]12 [Compound No. 28, (1R,5S,6S)-2-[2-(4-Hydroxyiminopiperidin-1-yl)-2-iminoethylthio]-6-[(1R)-1-hydroxyethyl]-1-methyl-1-carbapen-2-em-3-carboxylic acid]",0.4,0.1,0.02,0.05,0.05,1.5,0.1,≤ 0.01,0.05,,,,,
